# Patent US20260130395A1, “Water Dispersible Botanical Compositions” (Aquila Black Limited, priority 2021, published 2026)
# Assay: Stability of cannabinoid compounds and Vitamin E components in Beverage 2 (AB Red) by LCMSMS
# Type: physicochemical
# Experimental: The stability of the plant-derived cannabinoid compounds and Vitamin E components of the beverage stored 8° C. and at room temperature (21-25° C.) were monitored, over a period of 570 days via Liquid Chromatography-tandem Mass Spectrometry [LCMSMS, AGilent 6590, C18, 3×50 mm, 2.7 m (Agilent InfinityLab Poroshell 120 EC-C18), Electrospray Ionization detector]. The LCMSMS was calibrated for 0-50 ng/ml cannabinoids with the same resin material used in the preparation of the concentrates. At each time period, 100 ml of beverage was diluted with 10 ml of methanol and injected into the LCMSMS for analysis.
structure (smiles),measurement,setting,value
"CCCCCc1cc(O)c2c(c1)OC1(C)CCC3C1C2C3(C)C (centres unmarked) [CBL, cannabicyclol]",Stability of Plant-Derived Cannabinoid Compounds in AB Red,"stored at 8° C., 0 days",0.510 µg/mL
same,Stability of Plant-Derived Cannabinoid Compounds in AB Red,"stored at 8° C., 1 days",0.512 µg/mL
same,Stability of Plant-Derived Cannabinoid Compounds in AB Red,"stored at 8° C., 2 days",0.508 µg/mL
same,Stability of Plant-Derived Cannabinoid Compounds in AB Red,"stored at 8° C., 3 days",0.499 µg/mL
same,Stability of Plant-Derived Cannabinoid Compounds in AB Red,"stored at 8° C., 5 days",0.501 µg/mL
same,Stability of Plant-Derived Cannabinoid Compounds in AB Red,"stored at 8° C., 8 days",0.496 µg/mL
same,Stability of Plant-Derived Cannabinoid Compounds in AB Red,"stored at 8° C., 9 days",0.496 µg/mL
same,Stability of Plant-Derived Cannabinoid Compounds in AB Red,"stored at 8° C., 10 days",0.505 µg/mL
same,Stability of Plant-Derived Cannabinoid Compounds in AB Red,"stored at 8° C., 11 days",0.501 µg/mL
same,Stability of Plant-Derived Cannabinoid Compounds in AB Red,"stored at 8° C., 12 days",0.499 µg/mL
same,Stability of Plant-Derived Cannabinoid Compounds in AB Red,"stored at 8° C., 15 days",0.510 µg/mL
same,Stability of Plant-Derived Cannabinoid Compounds in AB Red,"stored at 8° C., 16 days",0.502 µg/mL
same,Stability of Plant-Derived Cannabinoid Compounds in AB Red,"stored at 8° C., 17 days",0.514 µg/mL
same,Stability of Plant-Derived Cannabinoid Compounds in AB Red,"stored at 8° C., 18 days",0.513 µg/mL
same,Stability of Plant-Derived Cannabinoid Compounds in AB Red,"stored at 8° C., 19 days",0.510 µg/mL
same,Stability of Plant-Derived Cannabinoid Compounds in AB Red,"stored at 8° C., 22 days",0.495 µg/mL
same,Stability of Plant-Derived Cannabinoid Compounds in AB Red,"stored at 8° C., 23 days",0.502 µg/mL
same,Stability of Plant-Derived Cannabinoid Compounds in AB Red,"stored at 8° C., 24 days",0.508 µg/mL
same,Stability of Plant-Derived Cannabinoid Compounds in AB Red,"stored at 8° C., 25 days",0.510 µg/mL
same,Stability of Plant-Derived Cannabinoid Compounds in AB Red,"stored at 8° C., 26 days",0.502 µg/mL
same,Stability of Plant-Derived Cannabinoid Compounds in AB Red,"stored at 8° C., 29 days",0.511 µg/mL
same,Stability of Plant-Derived Cannabinoid Compounds in AB Red,"stored at 8° C., 30 days",0.511 µg/mL
same,Stability of Plant-Derived Cannabinoid Compounds in AB Red,"stored at 8° C., 60 days",0.491 µg/mL
same,Stability of Plant-Derived Cannabinoid Compounds in AB Red,"stored at 8° C., 90 days",0.501 µg/mL
same,Stability of Plant-Derived Cannabinoid Compounds in AB Red,"stored at 8° C., 120 days",0.488 µg/mL
same,Stability of Plant-Derived Cannabinoid Compounds in AB Red,"stored at 8° C., 150 days",0.501 µg/mL
same,Stability of Plant-Derived Cannabinoid Compounds in AB Red,"stored at 8° C., 180 days",0.506 µg/mL
same,Stability of Plant-Derived Cannabinoid Compounds in AB Red,"stored at 8° C., 210 days",0.490 µg/mL
same,Stability of Plant-Derived Cannabinoid Compounds in AB Red,"stored at 8° C., 240 days",0.490 µg/mL
same,Stability of Plant-Derived Cannabinoid Compounds in AB Red,"stored at 8° C., 270 days",0.504 µg/mL
same,Stability of Plant-Derived Cannabinoid Compounds in AB Red,"stored at 8° C., 300 days",0.489 µg/mL
same,Stability of Plant-Derived Cannabinoid Compounds in AB Red,"stored at 8° C., 330 days",0.505 µg/mL
same,Stability of Plant-Derived Cannabinoid Compounds in AB Red,"stored at 8° C., 360 days",0.495 µg/mL
same,Stability of Plant-Derived Cannabinoid Compounds in AB Red,"stored at 8° C., 390 days",0.491 µg/mL
same,Stability of Plant-Derived Cannabinoid Compounds in AB Red,"stored at 8° C., 420 days",0.494 µg/mL
same,Stability of Plant-Derived Cannabinoid Compounds in AB Red,"stored at 8° C., 450 days",0.492 µg/mL
same,Stability of Plant-Derived Cannabinoid Compounds in AB Red,"stored at 8° C., 480 days",0.487 µg/mL
same,Stability of Plant-Derived Cannabinoid Compounds in AB Red,"stored at 8° C., 510 days",0.468 µg/mL
same,Stability of Plant-Derived Cannabinoid Compounds in AB Red,"stored at 8° C., 540 days",0.470 µg/mL
same,Stability of Plant-Derived Cannabinoid Compounds in AB Red,"stored at 8° C., 570 days",0.469 µg/mL
same,Stability of Plant-Derived Cannabinoid Compounds in AB Red,"stored at 21-25° C., 0 days",0.51 µg/mL
same,Stability of Plant-Derived Cannabinoid Compounds in AB Red,"stored at 21-25° C., 1 days",0.50 µg/mL
same,Stability of Plant-Derived Cannabinoid Compounds in AB Red,"stored at 21-25° C., 2 days",0.50 µg/mL
same,Stability of Plant-Derived Cannabinoid Compounds in AB Red,"stored at 21-25° C., 3 days",0.50 µg/mL
same,Stability of Plant-Derived Cannabinoid Compounds in AB Red,"stored at 21-25° C., 5 days",0.51 µg/mL
same,Stability of Plant-Derived Cannabinoid Compounds in AB Red,"stored at 21-25° C., 8 days",0.50 µg/mL
same,Stability of Plant-Derived Cannabinoid Compounds in AB Red,"stored at 21-25° C., 9 days",0.51 µg/mL
same,Stability of Plant-Derived Cannabinoid Compounds in AB Red,"stored at 21-25° C., 10 days",0.50 µg/mL
same,Stability of Plant-Derived Cannabinoid Compounds in AB Red,"stored at 21-25° C., 11 days",0.50 µg/mL
same,Stability of Plant-Derived Cannabinoid Compounds in AB Red,"stored at 21-25° C., 12 days",0.50 µg/mL
same,Stability of Plant-Derived Cannabinoid Compounds in AB Red,"stored at 21-25° C., 15 days",0.50 µg/mL
same,Stability of Plant-Derived Cannabinoid Compounds in AB Red,"stored at 21-25° C., 16 days",0.51 µg/mL
same,Stability of Plant-Derived Cannabinoid Compounds in AB Red,"stored at 21-25° C., 17 days",0.51 µg/mL
same,Stability of Plant-Derived Cannabinoid Compounds in AB Red,"stored at 21-25° C., 18 days",0.50 µg/mL
same,Stability of Plant-Derived Cannabinoid Compounds in AB Red,"stored at 21-25° C., 19 days",0.49 µg/mL
same,Stability of Plant-Derived Cannabinoid Compounds in AB Red,"stored at 21-25° C., 22 days",0.49 µg/mL
same,Stability of Plant-Derived Cannabinoid Compounds in AB Red,"stored at 21-25° C., 23 days",0.51 µg/mL
same,Stability of Plant-Derived Cannabinoid Compounds in AB Red,"stored at 21-25° C., 24 days",0.50 µg/mL
same,Stability of Plant-Derived Cannabinoid Compounds in AB Red,"stored at 21-25° C., 25 days",0.51 µg/mL
same,Stability of Plant-Derived Cannabinoid Compounds in AB Red,"stored at 21-25° C., 26 days",0.51 µg/mL
same,Stability of Plant-Derived Cannabinoid Compounds in AB Red,"stored at 21-25° C., 29 days",0.49 µg/mL
same,Stability of Plant-Derived Cannabinoid Compounds in AB Red,"stored at 21-25° C., 30 days",0.51 µg/mL
same,Stability of Plant-Derived Cannabinoid Compounds in AB Red,"stored at 21-25° C., 60 days",0.50 µg/mL
same,Stability of Plant-Derived Cannabinoid Compounds in AB Red,"stored at 21-25° C., 90 days",0.49 µg/mL
same,Stability of Plant-Derived Cannabinoid Compounds in AB Red,"stored at 21-25° C., 120 days",0.50 µg/mL
same,Stability of Plant-Derived Cannabinoid Compounds in AB Red,"stored at 21-25° C., 150 days",0.49 µg/mL
same,Stability of Plant-Derived Cannabinoid Compounds in AB Red,"stored at 21-25° C., 180 days",0.50 µg/mL
same,Stability of Plant-Derived Cannabinoid Compounds in AB Red,"stored at 21-25° C., 210 days",0.49 µg/mL
same,Stability of Plant-Derived Cannabinoid Compounds in AB Red,"stored at 21-25° C., 240 days",0.49 µg/mL
same,Stability of Plant-Derived Cannabinoid Compounds in AB Red,"stored at 21-25° C., 270 days",0.49 µg/mL
same,Stability of Plant-Derived Cannabinoid Compounds in AB Red,"stored at 21-25° C., 300 days",0.50 µg/mL
same,Stability of Plant-Derived Cannabinoid Compounds in AB Red,"stored at 21-25° C., 330 days",0.50 µg/mL
same,Stability of Plant-Derived Cannabinoid Compounds in AB Red,"stored at 21-25° C., 360 days",0.49 µg/mL
same,Stability of Plant-Derived Cannabinoid Compounds in AB Red,"stored at 21-25° C., 390 days",0.49 µg/mL
same,Stability of Plant-Derived Cannabinoid Compounds in AB Red,"stored at 21-25° C., 420 days",0.48 µg/mL
same,Stability of Plant-Derived Cannabinoid Compounds in AB Red,"stored at 21-25° C., 450 days",0.49 µg/mL
same,Stability of Plant-Derived Cannabinoid Compounds in AB Red,"stored at 21-25° C., 480 days",0.48 µg/mL
same,Stability of Plant-Derived Cannabinoid Compounds in AB Red,"stored at 21-25° C., 510 days",0.47 µg/mL
same,Stability of Plant-Derived Cannabinoid Compounds in AB Red,"stored at 21-25° C., 540 days",0.47 µg/mL
same,Stability of Plant-Derived Cannabinoid Compounds in AB Red,"stored at 21-25° C., 570 days",0.47 µg/mL
